From patent US5837852A, “Capped nucleic acid oligomers that inhibit cap-dependent transcription of the influenza virus endonuclease” (priority 1993, dated 1998)
Entries after “also recorded” stand apart in the source; their conditions may differ. {m7Gppp} = cap: 7-methylguanosine joined 5'-5' by triphosphate; m = 2'-O-methyl; r = 2'-OH (RNA); {P} = phosphate

What was measured:
[1] = test system: viral polymerase (viral cores); assay: Elongation (priming of transcription) of capped RNA fragments by viral cores with NTPs; format: biochemical, Influenza A/PR/8 virus (H1N1); conditions: with NTPs (ATP, CTP, GTP)
[2] = test system: influenza virus endonuclease (viral polymerase in viral cores); assay: Viral endonuclease cleavage reaction of capped RNA substrates with viral cores; format: biochemical, Influenza A/PR/8 virus (H1N1); conditions: for dephosphorylation of the 3' phosphate by the viral polymerase (in words): 3'-phosphate terminated fragments with viral cores; for endonucleolytic cleavage by viral cores (in words): absence of nucleotide triphosphates
viral cores = conditions: glycerol gradients, reference 3; cited from earlier work

m^7 GpppGmAAUACUCAAp (GAAUACUCAA; sugars from the 5' end m1 r9, 5' {m7Gppp}, 3' {P}, backbone not given here) [ID; NO]
elongation / priming of transcription by viral cores (in words) [1]: little elongation
dephosphorylation of the 3' phosphate by the viral polymerase (in words) [2]: essentially no cleavage of the 3' phosphate; also recorded: little if any dephosphorylation

m^7 GpppGmAAUACUCA
elongation / priming of transcription by viral cores (in words) ([1]; listed as A9-OH): inefficiently elongated; also recorded: appeared to promote an abortive elongation product or primed transcription very inefficiently

m^7 GpppGmAAUACUCAAGCp (GAAUACUCAAGC; sugars from the 5' end m1 r11, 5' {m7Gppp}, 3' {P}, backbone not given here) [ID; NO]
elongation / priming of transcription by viral cores (in words) [1]: A small amount of elongation was observed
dephosphorylation of the 3' phosphate by the viral polymerase (in words) [2]: little if any dephosphorylation
endonucleolytic cleavage by viral cores (in words) [2]: little cleavage of the C12-P fragment to the G11-OH fragment occurred

m^7 GpppGmUUUUUAp
co-sedimentation with viral cores (viral cores): co-sedimented efficiently

m^7 GpppGmAAUACUCAAGp (GAAUACUCAAG; sugars from the 5' end m1 r10, 5' {m7Gppp}, 3' {P}, backbone not given here) [ID; NO]
elongation / priming of transcription by viral cores (in words) [1]: little elongation
elongation / priming of transcription by viral cores (in words) ([1]; listed as G11-p): unable to efficiently prime transcription
dephosphorylation of the 3' phosphate by the viral polymerase (in words) [2]: essentially no cleavage of the 3' phosphate; also recorded: little if any dephosphorylation
dephosphorylation of the 3' phosphate by the viral polymerase (in words) ([2]; listed as G11-p): not converted to the G11-OH fragment
endonucleolytic cleavage by viral cores (in words) [2]: A minor amount of G11-P fragment was cleaved to the A9-OH fragment

m^7 GpppGmAAUACUCAAGCUp (GAAUACUCAAGCU; sugars from the 5' end m1 r12, 5' {m7Gppp}, 3' {P}, backbone not given here) [ID; NO]
elongation / priming of transcription by viral cores (in words) [1]: normal elongation is observed
endonucleolytic cleavage by viral cores (in words) [2]: cleaved in the absence of ribonucleotides to an 11 base primer

m^7 GpppGmAAUACUCAAGGp
endonucleolytic cleavage by viral cores (in words) [2]: cleavage to an 11-base primer resulted

m^7 GpppGmAAUACUCAA (GAAUACUCAA; sugars from the 5' end m1 r9, 5' {m7Gppp}, backbone not given here) [ID; NO]
elongation / priming of transcription by viral cores (in words) [1]: directly primed elongation

m^7 GpppGmAAUACU
elongation / priming of transcription by viral cores (in words) [1]: nor were they able to prime transcription
endonucleolytic cleavage by viral cores (in words) [2]: neither cleaved

m^7 GpppGmUp
co-sedimentation with viral cores (viral cores): did not

m^7 GpppGmAAUACUCAAGC (GAAUACUCAAGC; sugars from the 5' end m1 r11, 5' {m7Gppp}, backbone not given here) [ID; NO]
elongation / priming of transcription by viral cores (in words) [1]: appeared to prime transcription without cleavage
endonucleolytic cleavage by viral cores (in words) [2]: a minor amount of secondary cleavage to a putative A9-OH fragment occurred

m^7 GpppGmAAUACUCAAG-OH (GAAUACUCAAG; sugars from the 5' end m1 r10, 5' {m7Gppp}, backbone not given here) [ID; NO; 5, capped 11-nucleotide cleavage product]
elongation / priming of transcription by viral cores (in words) ([1]; listed as G11-OH): could function as a primer for viral transcription; also recorded: able to prime with an efficiency similar to that obtained with the full-length substrate
endonucleolytic cleavage by viral cores (in words) [2]: did not result in further cleavage

m^7 GpppGm
co-sedimentation with viral cores (viral cores): did not

m^7 GpppGmAAUACUC
elongation / priming of transcription by viral cores (in words) [1]: nor were they able to prime transcription
endonucleolytic cleavage by viral cores (in words) [2]: neither cleaved
